What was measured:
Assay in all cases: KINOMEscan
Type in all cases: binding
Conditions in all cases: read-out: % control activity remaining
CDK9 = target: T1, CDK9 (Homo sapiens, UniProt P50750)
T1 construct: purchased Eurofins DiscoverX KINOMEscan

AURKC = target: T2, AURKC (Homo sapiens, UniProt Q9UQB9)
T2 construct: purchased Eurofins DiscoverX KINOMEscan
T2 sequence (Q9UQB9 1-309): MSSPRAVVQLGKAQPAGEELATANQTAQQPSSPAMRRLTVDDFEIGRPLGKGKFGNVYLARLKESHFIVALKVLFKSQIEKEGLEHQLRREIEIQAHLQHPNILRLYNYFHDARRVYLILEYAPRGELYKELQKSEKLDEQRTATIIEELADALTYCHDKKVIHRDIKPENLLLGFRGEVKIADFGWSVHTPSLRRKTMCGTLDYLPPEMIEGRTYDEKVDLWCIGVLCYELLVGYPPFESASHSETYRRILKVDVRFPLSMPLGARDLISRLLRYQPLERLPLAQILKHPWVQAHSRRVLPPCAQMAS

RIPK2 = target: T3, RIPK2 (Homo sapiens, UniProt O43353)
T3 construct: purchased Eurofins DiscoverX KINOMEscan
T3 sequence (O43353 whole entry): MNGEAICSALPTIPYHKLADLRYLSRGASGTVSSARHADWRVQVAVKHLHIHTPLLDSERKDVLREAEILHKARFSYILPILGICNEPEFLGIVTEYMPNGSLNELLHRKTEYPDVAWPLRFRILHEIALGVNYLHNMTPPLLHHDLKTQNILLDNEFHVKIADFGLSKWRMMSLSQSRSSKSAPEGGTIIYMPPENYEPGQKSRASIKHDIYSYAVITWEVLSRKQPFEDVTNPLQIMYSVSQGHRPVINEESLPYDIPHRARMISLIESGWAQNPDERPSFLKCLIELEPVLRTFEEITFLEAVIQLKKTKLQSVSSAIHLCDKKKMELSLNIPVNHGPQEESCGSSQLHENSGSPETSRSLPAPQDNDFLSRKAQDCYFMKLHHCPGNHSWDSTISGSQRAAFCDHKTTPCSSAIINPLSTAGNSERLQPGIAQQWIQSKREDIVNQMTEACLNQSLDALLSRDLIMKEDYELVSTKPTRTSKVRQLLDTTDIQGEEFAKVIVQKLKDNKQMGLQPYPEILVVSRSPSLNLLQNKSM

MRCKA = target: T4, MRCKA (Homo sapiens, UniProt Q5VT25)
T4 construct: purchased Eurofins DiscoverX KINOMEscan
T4 sequence (Q5VT25 whole entry): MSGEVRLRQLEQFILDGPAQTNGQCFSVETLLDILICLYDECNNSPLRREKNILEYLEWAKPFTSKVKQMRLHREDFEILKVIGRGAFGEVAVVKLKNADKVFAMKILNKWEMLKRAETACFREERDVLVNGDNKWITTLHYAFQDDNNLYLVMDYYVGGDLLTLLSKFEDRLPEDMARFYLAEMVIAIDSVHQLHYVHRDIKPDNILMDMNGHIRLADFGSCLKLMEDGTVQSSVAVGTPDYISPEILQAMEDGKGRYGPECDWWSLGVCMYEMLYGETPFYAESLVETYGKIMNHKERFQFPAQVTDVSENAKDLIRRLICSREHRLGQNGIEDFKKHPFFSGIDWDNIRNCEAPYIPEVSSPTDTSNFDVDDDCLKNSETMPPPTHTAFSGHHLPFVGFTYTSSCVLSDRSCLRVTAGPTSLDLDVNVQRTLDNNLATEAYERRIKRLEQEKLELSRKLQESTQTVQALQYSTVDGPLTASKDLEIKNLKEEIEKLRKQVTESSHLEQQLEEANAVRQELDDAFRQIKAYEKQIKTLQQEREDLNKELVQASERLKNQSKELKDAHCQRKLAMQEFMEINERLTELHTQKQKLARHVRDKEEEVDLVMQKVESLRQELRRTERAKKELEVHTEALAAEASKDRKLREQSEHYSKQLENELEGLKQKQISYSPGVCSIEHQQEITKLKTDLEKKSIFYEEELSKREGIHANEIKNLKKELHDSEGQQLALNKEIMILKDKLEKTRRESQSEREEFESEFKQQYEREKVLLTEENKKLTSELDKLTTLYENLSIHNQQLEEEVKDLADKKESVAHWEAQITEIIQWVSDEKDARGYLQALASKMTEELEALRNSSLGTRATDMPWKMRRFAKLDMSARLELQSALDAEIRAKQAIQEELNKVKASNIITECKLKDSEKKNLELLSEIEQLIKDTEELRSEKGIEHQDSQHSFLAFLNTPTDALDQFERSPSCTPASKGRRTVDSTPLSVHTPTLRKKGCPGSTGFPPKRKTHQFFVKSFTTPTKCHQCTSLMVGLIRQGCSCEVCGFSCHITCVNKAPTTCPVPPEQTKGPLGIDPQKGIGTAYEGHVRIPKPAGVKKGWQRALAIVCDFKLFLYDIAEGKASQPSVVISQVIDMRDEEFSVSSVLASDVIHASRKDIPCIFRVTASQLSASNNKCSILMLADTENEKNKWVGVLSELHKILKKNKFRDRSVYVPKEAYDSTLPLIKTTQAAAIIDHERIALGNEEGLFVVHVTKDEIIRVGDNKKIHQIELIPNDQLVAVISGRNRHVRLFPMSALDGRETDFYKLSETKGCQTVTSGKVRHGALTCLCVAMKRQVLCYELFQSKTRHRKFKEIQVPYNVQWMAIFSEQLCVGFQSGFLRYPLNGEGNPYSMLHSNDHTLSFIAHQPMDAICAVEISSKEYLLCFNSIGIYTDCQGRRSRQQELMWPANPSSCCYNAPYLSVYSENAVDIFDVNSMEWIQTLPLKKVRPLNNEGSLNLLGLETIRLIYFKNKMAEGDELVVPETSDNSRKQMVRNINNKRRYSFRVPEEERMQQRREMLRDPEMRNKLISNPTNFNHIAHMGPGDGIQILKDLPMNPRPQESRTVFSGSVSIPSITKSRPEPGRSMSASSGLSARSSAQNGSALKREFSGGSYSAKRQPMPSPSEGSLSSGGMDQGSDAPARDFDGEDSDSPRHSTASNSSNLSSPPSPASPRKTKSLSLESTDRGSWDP

EPHB3 = target: T5, EPHB3 (Homo sapiens, UniProt P54753)
T5 construct: purchased Eurofins DiscoverX KINOMEscan
T5 sequence (P54753 34-998): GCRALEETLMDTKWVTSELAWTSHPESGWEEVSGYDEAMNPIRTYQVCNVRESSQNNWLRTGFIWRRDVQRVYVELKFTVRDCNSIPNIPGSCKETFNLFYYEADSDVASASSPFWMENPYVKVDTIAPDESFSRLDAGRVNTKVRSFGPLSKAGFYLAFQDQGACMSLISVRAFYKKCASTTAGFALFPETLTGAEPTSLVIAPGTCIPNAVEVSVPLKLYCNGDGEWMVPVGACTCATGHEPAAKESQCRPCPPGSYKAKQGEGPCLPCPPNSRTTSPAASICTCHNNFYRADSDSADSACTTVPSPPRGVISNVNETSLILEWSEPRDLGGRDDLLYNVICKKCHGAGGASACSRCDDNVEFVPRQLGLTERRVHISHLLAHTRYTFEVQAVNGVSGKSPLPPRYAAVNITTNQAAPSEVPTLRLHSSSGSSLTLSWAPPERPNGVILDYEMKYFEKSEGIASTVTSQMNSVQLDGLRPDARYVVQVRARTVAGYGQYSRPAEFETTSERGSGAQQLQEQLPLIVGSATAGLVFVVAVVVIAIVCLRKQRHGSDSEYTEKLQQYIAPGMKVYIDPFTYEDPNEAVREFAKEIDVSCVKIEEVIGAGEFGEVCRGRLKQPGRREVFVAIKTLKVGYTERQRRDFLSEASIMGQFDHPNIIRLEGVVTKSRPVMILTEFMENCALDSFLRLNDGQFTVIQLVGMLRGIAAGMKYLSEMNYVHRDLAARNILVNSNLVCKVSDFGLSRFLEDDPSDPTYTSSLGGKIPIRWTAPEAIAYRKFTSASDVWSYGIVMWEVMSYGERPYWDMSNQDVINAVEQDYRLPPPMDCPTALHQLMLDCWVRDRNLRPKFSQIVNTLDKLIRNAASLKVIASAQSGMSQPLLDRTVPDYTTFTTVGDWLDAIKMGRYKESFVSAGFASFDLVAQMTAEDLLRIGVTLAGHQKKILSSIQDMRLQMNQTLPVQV

PIK3CA(I800L) = target: T6, PIK3CA(I800L) (Homo sapiens, UniProt P42336, I800L)
T6 construct: purchased Eurofins DiscoverX KINOMEscan
T6 sequence (P42336 whole entry I800L): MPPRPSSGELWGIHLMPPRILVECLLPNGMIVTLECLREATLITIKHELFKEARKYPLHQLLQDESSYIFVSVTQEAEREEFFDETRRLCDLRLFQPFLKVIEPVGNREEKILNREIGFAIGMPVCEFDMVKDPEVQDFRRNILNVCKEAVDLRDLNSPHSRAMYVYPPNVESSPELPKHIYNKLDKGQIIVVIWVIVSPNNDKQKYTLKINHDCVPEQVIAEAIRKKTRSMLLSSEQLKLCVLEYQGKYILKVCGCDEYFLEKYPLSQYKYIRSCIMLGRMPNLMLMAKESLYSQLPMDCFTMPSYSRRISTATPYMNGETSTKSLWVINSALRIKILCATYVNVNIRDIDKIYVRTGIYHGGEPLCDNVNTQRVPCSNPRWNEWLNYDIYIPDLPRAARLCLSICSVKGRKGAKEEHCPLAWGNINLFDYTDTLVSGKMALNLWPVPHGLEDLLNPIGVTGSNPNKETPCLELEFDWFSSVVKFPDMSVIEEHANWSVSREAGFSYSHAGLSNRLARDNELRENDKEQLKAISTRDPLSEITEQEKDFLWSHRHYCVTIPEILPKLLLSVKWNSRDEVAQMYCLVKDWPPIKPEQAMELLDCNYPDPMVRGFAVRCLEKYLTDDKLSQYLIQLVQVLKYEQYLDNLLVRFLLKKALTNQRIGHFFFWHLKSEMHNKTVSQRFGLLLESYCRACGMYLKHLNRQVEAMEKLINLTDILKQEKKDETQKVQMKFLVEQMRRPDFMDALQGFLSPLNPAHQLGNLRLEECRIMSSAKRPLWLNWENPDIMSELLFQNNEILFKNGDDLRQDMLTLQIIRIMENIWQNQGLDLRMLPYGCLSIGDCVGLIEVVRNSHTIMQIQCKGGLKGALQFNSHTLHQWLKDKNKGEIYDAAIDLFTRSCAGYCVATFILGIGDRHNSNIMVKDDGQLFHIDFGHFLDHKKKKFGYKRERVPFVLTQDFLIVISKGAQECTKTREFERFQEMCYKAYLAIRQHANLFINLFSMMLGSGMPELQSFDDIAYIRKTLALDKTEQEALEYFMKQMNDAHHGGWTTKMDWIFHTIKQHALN

IRAK3 = target: T7, IRAK3 (Homo sapiens, UniProt Q9Y616)
T7 construct: purchased Eurofins DiscoverX KINOMEscan
T7 sequence (Q9Y616 1-596): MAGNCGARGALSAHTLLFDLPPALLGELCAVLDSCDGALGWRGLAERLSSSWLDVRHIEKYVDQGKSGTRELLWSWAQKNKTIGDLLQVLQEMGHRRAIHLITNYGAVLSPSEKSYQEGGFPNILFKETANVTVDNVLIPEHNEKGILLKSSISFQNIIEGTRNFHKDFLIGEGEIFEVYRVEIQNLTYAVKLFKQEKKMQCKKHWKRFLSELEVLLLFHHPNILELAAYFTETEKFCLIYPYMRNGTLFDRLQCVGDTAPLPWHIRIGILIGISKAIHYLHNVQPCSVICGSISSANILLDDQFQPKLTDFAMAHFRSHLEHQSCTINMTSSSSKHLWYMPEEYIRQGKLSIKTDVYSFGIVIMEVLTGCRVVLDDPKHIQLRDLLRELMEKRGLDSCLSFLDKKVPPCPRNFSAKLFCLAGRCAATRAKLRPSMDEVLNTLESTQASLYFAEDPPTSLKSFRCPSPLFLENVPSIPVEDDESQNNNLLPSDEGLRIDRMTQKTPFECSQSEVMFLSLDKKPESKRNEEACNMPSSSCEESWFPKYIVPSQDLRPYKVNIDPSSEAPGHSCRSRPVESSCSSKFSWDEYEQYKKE

PRKCD = target: T8, PRKCD (Homo sapiens, UniProt Q05655)
T8 construct: purchased Eurofins DiscoverX KINOMEscan
T8 sequence (Q05655 whole entry): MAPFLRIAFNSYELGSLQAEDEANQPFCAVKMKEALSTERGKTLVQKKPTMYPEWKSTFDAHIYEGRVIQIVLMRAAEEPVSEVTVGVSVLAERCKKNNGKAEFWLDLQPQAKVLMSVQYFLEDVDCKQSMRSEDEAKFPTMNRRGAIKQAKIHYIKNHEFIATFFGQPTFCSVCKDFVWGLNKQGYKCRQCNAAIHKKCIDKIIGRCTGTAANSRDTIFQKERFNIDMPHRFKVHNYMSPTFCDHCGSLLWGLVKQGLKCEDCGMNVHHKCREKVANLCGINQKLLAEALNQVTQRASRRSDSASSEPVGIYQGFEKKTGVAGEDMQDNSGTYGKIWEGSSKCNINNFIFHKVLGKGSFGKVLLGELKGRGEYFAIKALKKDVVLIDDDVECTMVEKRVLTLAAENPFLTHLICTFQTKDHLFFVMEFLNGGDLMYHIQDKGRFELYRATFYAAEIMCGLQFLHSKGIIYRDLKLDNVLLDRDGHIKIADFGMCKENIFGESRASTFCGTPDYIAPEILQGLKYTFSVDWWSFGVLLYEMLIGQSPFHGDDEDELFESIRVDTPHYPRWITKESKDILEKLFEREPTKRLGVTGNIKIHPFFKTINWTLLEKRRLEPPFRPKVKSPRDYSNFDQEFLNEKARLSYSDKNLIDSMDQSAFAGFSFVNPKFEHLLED

SNARK = target: T9, SNARK (Homo sapiens, UniProt Q9H093)
T9 construct: purchased Eurofins DiscoverX KINOMEscan
T9 sequence (Q9H093 1-628): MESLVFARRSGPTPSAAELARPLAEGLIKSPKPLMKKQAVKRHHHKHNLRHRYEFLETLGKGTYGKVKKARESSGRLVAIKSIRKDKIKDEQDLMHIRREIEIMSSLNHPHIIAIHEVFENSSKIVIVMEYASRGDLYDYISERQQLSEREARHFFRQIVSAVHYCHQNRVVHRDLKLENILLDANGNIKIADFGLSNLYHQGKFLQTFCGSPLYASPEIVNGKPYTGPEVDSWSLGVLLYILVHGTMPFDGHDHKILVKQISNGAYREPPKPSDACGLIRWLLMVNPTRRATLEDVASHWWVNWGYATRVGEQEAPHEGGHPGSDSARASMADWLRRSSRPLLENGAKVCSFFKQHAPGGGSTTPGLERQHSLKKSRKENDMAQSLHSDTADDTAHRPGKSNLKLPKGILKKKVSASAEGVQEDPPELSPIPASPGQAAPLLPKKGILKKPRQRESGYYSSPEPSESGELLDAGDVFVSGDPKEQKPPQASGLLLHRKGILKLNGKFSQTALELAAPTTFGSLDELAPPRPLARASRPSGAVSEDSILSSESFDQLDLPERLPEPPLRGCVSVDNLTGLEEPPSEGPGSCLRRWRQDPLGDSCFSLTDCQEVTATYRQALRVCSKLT

[1] = target: T10, ABL1(Y253F)-phosphorylated (Homo sapiens, UniProt P00519, Y253F)
T10 construct: purchased Eurofins DiscoverX KINOMEscan

T1 sequence (P50750 whole entry): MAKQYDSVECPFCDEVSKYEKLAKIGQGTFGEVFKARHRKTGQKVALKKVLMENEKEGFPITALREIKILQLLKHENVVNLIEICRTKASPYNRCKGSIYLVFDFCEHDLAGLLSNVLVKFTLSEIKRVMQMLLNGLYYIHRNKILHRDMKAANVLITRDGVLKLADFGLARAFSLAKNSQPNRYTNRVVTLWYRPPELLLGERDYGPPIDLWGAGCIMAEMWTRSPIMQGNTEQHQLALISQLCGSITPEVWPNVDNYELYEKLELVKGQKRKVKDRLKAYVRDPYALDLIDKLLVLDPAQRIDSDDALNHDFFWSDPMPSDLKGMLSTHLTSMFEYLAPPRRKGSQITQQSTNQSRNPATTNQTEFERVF

Row | SMILES | remaining binding at 1 µM (CDK9) | remaining binding at 1 µM (AURKC) | remaining binding at 1 µM (RIPK2) | remaining binding at 1 µM (MRCKA) | remaining binding at 1 µM (EPHB3) | remaining binding at 1 µM (PIK3CA(I800L)) | remaining binding at 1 µM (IRAK3) | remaining binding at 1 µM (PRKCD) | remaining binding at 1 µM (SNARK) | remaining binding at 1 µM [1]
1 | CN1CCC(CNc2cc(Cl)nn3c(-c4cc5nc(Nc6ccccc6)[nH]c5cc4F)cnc23)CC1 [compound 31, 6-Chloro-3-(6-fluoro-2-(phenylamino)-1H-benzo[d]imidazol-5-yl)-N-((1-methylpiperidin-4-yl)methyl)imidazo[1,2-b]pyridazin-8-amine] | 95% | 92% | 100% | 97% | 92% | 58% | 95% | 62% | 88% | 75%
2 | O=C(CN1CCOCC1)N[C@H]1CC[C@H](Nc2cc(Cl)nn3c(-c4ccc5[nH]ncc5c4)cnc23)CC1 [compound 26] | 43% | 58% | 61% | 82% | 88% | 88% | 49% | 90% | 73% | 55%
3 | Clc1cc(NCC2CC2)c2ncc(-c3ccc4[nH]ncc4c3)n2n1 [compound 2, 6-Chloro-N-(cyclopropylmethyl)-3-(1H-indazol-5-yl)imidazo[1,2-b]pyridazin-8-amine] | 98% | 92% | 88% | 90% | 82% | 83% | 100% | 93% | 99% | 71%
